Test results published in patent publication US4189484A, “Antihypertensive quinazoline derivatives” (priority 1977, dated 1980).

Tested on: spontaneously hypertensive rats (SHR)
Assay: Antihypertensive effect, oral administration to spontaneously hypertensive rats (mean blood pressure and heart rate)
Type: in vivo, rat
Details: SHR, p.o.; for Changes in average blood pressures after administration: Table 3; for Change in blood pressure after 3 hrs. from administration: Table 1
Description: Antihypertensive effect was determined by oral administration of the test compound to spontaneously hypertensive rats (hereinafter referred to as SHR).
These SHR were anesthetized with ether and chronically embedded with a cannula for determination of blood pressure so that one end of the said cannula may be placed in abdominal aorta and the other end thereof may be projected out of dorsal neck. When rats regained their body weight before operation in more than 1 week from operation, the test compound was given. Determination was made by measuring a mean blood pressure and a heart rate under unanesthetized and unrestrained conditions with the cannula connected to an electronic recording system. The test compound was suspended in a 1% tragacanth gum solution to make up a concentration so as to be a volume of 5 ml./kg. and then orally given.

Compound | Changes in average blood pressures after administration (3 mg./kg., 1 hr.) | Changes in average blood pressures after administration (3 mg./kg., 3 hrs.) | Changes in average blood pressures after administration (3 mg./kg., 6 hrs.) | Changes in average blood pressures after administration (3 mg./kg., 24 hrs.) | Change in blood pressure after 3 hrs. from administration (10 mg./kg., 3 hrs.) | other results
COc1cc2nc(N3CCCN(C(=O)C=Cc4ccco4)CC3)nc(N)c2cc1OC [compound 46, 2-{4-[3-(Furan-2-yl)-acryloyl]-homopiperazin-1-yl}-4-amino-6,7-dimethoxyquinazoline] | -20 mmHg | -10 mmHg | -12 mmHg | -8 mmHg |  | 
C=CCOc1ccc(C=CC(=O)N2CCN(c3nc(N)c4cc(OC)c(OC)cc4n3)CC2)cc1 [compound 17, 2-[4-(4-Allyloxycinnamoyl)-piperazin-1-yl]-4-amino-6,7-dimethoxyquinazoline] |  |  |  |  | -18 mmHg | 
COc1cc2nc(N3CCN(C(=O)C=Cc4cccc(C)c4)CC3)nc(N)c2cc1OC [compound 3, 2-[4-(3-Methylcinnamoyl)-piperazin-1-yl]-4-amino-6,7-dimethoxyquinazoline] |  |  |  |  | -35 mmHg | 
COc1cc2nc(N3CCN(C(=O)C=Cc4sccc4C)CC3)nc(N)c2cc1OC [compound 37, 2-{4-[3-(3-Methylthiophen-2-yl)-acryloyl]-piperazin-1-yl}-4-amino-6,7-dimethoxyquinazoline] | -18 mmHg | -18 mmHg | -18 mmHg | 5 mmHg |  | 
COc1cc2nc(N3CCN(C(=O)C=Cc4ccc(C)cc4)CC3)nc(N)c2cc1OC [compound 4, 2-[4-(4-Methylcinnamoyl)-piperazin-1-yl]-4-amino-6,7-dimethoxyquinazoline] |  |  |  |  | -18 mmHg | 
COc1cc2nc(N3CCN(C(=O)C(C)=Cc4ccco4)CC3)nc(N)c2cc1OC [compound 31, 2-{4-[2-Methyl-3-(furan-2-yl)-acryloyl]-piperazin-1-yl}-4-amino-6,7-dimethoxyquinazoline] |  |  |  |  |  | Changes in average blood pressures after administration (1 mg./kg., 1 hr.): -22 mmHg; Changes in average blood pressures after administration (1 mg./kg., 3 hrs.): -23 mmHg; Changes in average blood pressures after administration (1 mg./kg., 6 hrs.): -24 mmHg; Changes in average blood pressures after administration (1 mg./kg., 24 hrs.): -6 mmHg
COc1cc2nc(N3CCN(C(=O)C=Cc4ccc(N(C)C)cc4)CC3)nc(N)c2cc1OC [compound 23, 2-[4-(4-Dimethylaminocinnamoyl)-piperazin-1-yl]-4-amino-6,7-dimethoxyquinazoline] |  |  |  |  | -15 mmHg | 
COc1cc2nc(N3CCN(C(=O)C=Cc4ccc(Cl)o4)CC3)nc(N)c2cc1OC [compound 34, 2-{4-[3-(5-chlorofuran-2-yl)-acryloyl]-piperazin-1-yl}-4-amino-6,7-dimethoxyquinazoline] | -20 mmHg | -26 mmHg | -28 mmHg | 0 mmHg |  | 
COc1cc2nc(N3CCN(C(=O)C=Cc4cccnc4)CC3)nc(N)c2cc1OC [compound 44, 2-{4-[3-(Pyridin-3-yl)-acryloyl]-piperazin-1-yl}-4-amino-6,7-dimethoxyquinazoline] | -28 mmHg | -15 mmHg | -25 mmHg | 3 mmHg |  | 
COc1cccc(C=CC(=O)N2CCN(c3nc(N)c4cc(OC)c(OC)cc4n3)CC2)c1 [compound 7, 2-[4-(3-Methoxycinnamoyl)-piperazin-1-yl]-4-amino-6,7-dimethoxyquinazoline] |  |  |  |  | -18 mmHg | 
COc1cc2nc(N3CCN(C(=O)C=Cc4ccc(C)s4)CC3)nc(N)c2cc1OC [compound 38, 2-{4-[3-(5-Methylthiophen-2-yl)-acryloyl]-piperazin-1-yl}-4-amino-6,7-dimethoxyquinazoline] | -18 mmHg | -27 mmHg | -18 mmHg | -2 mmHg |  | 
COc1cc2nc(N3CCN(C(=O)C=Cc4ccc(OC)c(OC)c4OC)CC3)nc(N)c2cc1OC [compound 14, 2-[4-(2,3,4-Trimethoxycinnamoyl)-piperazin-1-yl]-4-amino-6,7-dimethoxyquinazoline] |  |  |  |  | -22 mmHg | 
COc1cc2nc(N3CCN(C(=O)C=Cc4ccc([N+](=O)[O-])o4)CC3)nc(N)c2cc1OC [compound 33, 2-{4-[3-(5-Nitrofuran-2-yl)-acryloyl]-piperazin-1-yl}-4-amino-6,7-dimethoxyquinazoline] | -15 mmHg | -20 mmHg | -11 mmHg | 3 mmHg |  | 
COc1cc2nc(N3CCN(C(=O)C(C)=Cc4cccs4)CC3)nc(N)c2cc1OC [compound 39, 2-{4-[2-Methyl-3-(thiophen-2-yl)-acryloyl]-piperazin-1-yl}-4-amino-6,7-dimethoxyquinazoline] | -65 mmHg | -27 mmHg | -35 mmHg | -15 mmHg |  | Changes in average blood pressures after administration (1 mg./kg., 1 hr.): -18 mmHg; Changes in average blood pressures after administration (1 mg./kg., 3 hrs.): -12 mmHg; Changes in average blood pressures after administration (1 mg./kg., 6 hrs.): -13 mmHg; Changes in average blood pressures after administration (1 mg./kg., 24 hrs.): 3 mmHg
COc1cc2nc(N3CCN(C(=O)C=Cc4ccncc4)CC3)nc(N)c2cc1OC [compound 45, 2-{4-[3-(Pyridin-4-yl)-acryloyl]-piperazin-1-yl}-4-amino-6,7-dimethoxyquinazoline] | -9 mmHg | -5 mmHg | -12 mmHg | 0 mmHg |  | 
COc1cc2nc(N3CCN(C(=O)C=Cc4cccc(C(F)(F)F)c4)CC3)nc(N)c2cc1OC [compound 22, 2-[4-(3-Trifluoromethylcinnamoyl)-piperazin-1-yl]-4-amino-6,7-dimethoxyquinazoline] |  |  |  |  | -10 mmHg | 
COc1cc2nc(N3CCN(C(=O)C=Cc4cccs4)CC3)nc(N)c2cc1OC [compound 35, 2-{4-[3-(Thiophen-2-yl)-acryloyl]-piperazin-1-yl}-4-amino-6,7-dimethoxyquinazoline] | -45 mmHg | -27 mmHg | -42 mmHg | -2 mmHg |  | Changes in average blood pressures after administration (1 mg./kg., 1 hr.): -27 mmHg; Changes in average blood pressures after administration (1 mg./kg., 3 hrs.): -25 mmHg; Changes in average blood pressures after administration (1 mg./kg., 6 hrs.): -25 mmHg; Changes in average blood pressures after administration (1 mg./kg., 24 hrs.): 0 mmHg
COc1cc2nc(N3CCN(C(=O)C=Cc4ccc(C)o4)CC3)nc(N)c2cc1OC [compound 30, 2-{4-[3-(5-Methylfuran-2-yl)-acryloyl]-piperazin-1-yl}-4-amino-6,7-dimethoxyquinazoline] |  |  |  |  |  | Changes in average blood pressures after administration (1 mg./kg., 1 hr.): -13 mmHg; Changes in average blood pressures after administration (1 mg./kg., 3 hrs.): -12 mmHg; Changes in average blood pressures after administration (1 mg./kg., 6 hrs.): -15 mmHg; Changes in average blood pressures after administration (1 mg./kg., 24 hrs.): 0 mmHg
COc1cc2nc(N3CCCN(C(=O)C=Cc4cccnc4)CC3)nc(N)c2cc1OC [compound 48, 2-{4-[3-(Pyridin-3-yl)-acryloyl]-homopiperazin-1-yl}-4-amino-6,7-dimethoxyquinazoline] | -9 mmHg | 0 mmHg | 0 mmHg | 2 mmHg |  | 
2-{4-[3-(5-Chlorothiophen-2-yl)-acryloyl]-piperazin-1-yl}-4-amino-6,7-dimethoxyquinazoline [compound 42] | -6 mmHg | -6 mmHg | -7 mmHg | -2 mmHg |  | 
COc1cc2nc(N3CCN(C(=O)C=Cc4ccccc4C)CC3)nc(N)c2cc1OC [compound 2, 2-[4-(2-Methylcinnamoyl)-piperazin-1-yl]-4-amino-6,7-dimethoxyquinazoline] |  |  |  |  | -43 mmHg | 
COc1cc2nc(N3CCN(C(=O)C=Cc4ccccn4)CC3)nc(N)c2cc1OC [compound 43, 2-{4-[3-(Pyridin-2-yl)-acryloyl]-piperazin-1-yl}-4-amino-6,7-dimethoxyquinazoline] | -40 mmHg | -22 mmHg | -30 mmHg | 8 mmHg |  | Changes in average blood pressures after administration (10 mg./kg., 1 hr.): -23 mmHg; Changes in average blood pressures after administration (10 mg./kg., 3 hrs.): -22 mmHg; Changes in average blood pressures after administration (10 mg./kg., 6 hrs.): -18 mmHg; Changes in average blood pressures after administration (10 mg./kg., 24 hrs.): -3 mmHg
COc1cc2nc(N3CCN(C(=O)C=Cc4ccc(Br)cc4)CC3)nc(N)c2cc1OC [compound 21, 2-[4-(4-Bromocinnamoyl)-piperazin-1-yl]-4-amino-6,7-dimethoxyquinazoline] |  |  |  |  | -22 mmHg | 
